These results are taken from US10227663B2, “Non-replicative transduction particles and transduction particle-based reporter systems” (priority 2013, dated 2019).

Values after ≈ are worked out from the molar mass of the structure shown. Like-named read-outs stand apart in the source and are kept apart here.

Experiment [1] concerns cefoxitin resistant S. aureus (MRSA strains). In words: MIC determination via plating on TSA plates containing cefoxitin. It is filed as cell-based. The note with it: Staphylococcus aureus. On the procedure: (§1) Overnight Culture: For each MRSA strain ([…] and S7) and a MSSA negative control strain (MSSA121), 2 mL of TSB were inoculated with a colony of the strain previously grown on TSA plates. Overnight MRSA cultures included 5 ug/mL cefoxitin. All samples were incubated overnight at 37° C. in a shaking incubator.
(§2) Day Culture: 20 uL of each of the overnight cultures were transferred into a new culture tube containing 2 mL of Growth Media Reagent. The inoculums were then incubated at 37 C with shaking for approximately 1 hr 45 min, until the OD(600 nm) reached 0.1.
a) Each of the day cultures was streaked onto TSA plates containing cefoxitin at 4, 8, 16, 32, 64, and 128 ug/mL.
b) Plates were incubated for 18 hours at 37 C to determine growth.

For experiment [2] the test system is unchanged. In words: NRTP-based cefoxitin susceptibility assay (luminescence). It is filed as cell-based, Staphylococcus aureus. On the procedure: as §1, §2
a) Wells of a white 96 well assay plate were filled with 100 uL of 2× Transduction Particle Reagent.
b) For each of the day cultures, five wells were then filled with 100 uL of day culture.
c) For each of the day cultures, cefoxitin was added to one well each such that the cefoxitin concentration in the well was at 4, 8, 16, 32, 64, and 128 ug/mL. […]
At the end of 4 hours, the plate was remove from incubator and immediately measured for luminescence on a SpectraMax L that injected 50 μl of the Substrate Reagent and measured luminescence for a period of 1 minute.
The maximum luminescence value after Substrate Reagent addition from each sample was plotted. MSSA sample RLU values were used to determine a Cutoff calculated using the following formula: (Mean MSSA RLU+3*SD MSSA RLU).

In general, MIC refers to the lowest concentration found to suppress growth. Consider `CO[C@@]1(NC(=O)Cc2cccs2)C(=O)N2C(C(=O)O)=C(COC(N)=O)CS[C@@H]21` [cefoxitin], for which the MIC was 128 µg/mL (≈ 299 µM) in experiment [1] (MRSA / NRS 25, 18 h) and 64 µg/mL (≈ 150 µM) in experiment [1] (MRSA S7, TSA plates, 18 hours at 37 C, read-out: MIC). Also, the “Cefoxitin concentration up to which luminescence was above the MSSA RLU cutoff” value in experiment [2] (MRSA NRS25, 4 hours at 37° C.) is “up to 64 ug/mL”; in experiment [2] (MRSA S7, 4 hours at 37° C.), “up to 32 ug/mL”.
